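Test compounds were applied to cells in 96-well plates for 48 hours at 5 doses. TGI: concentration producing complete growth inhibition.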
What was measured:
Test in all cases: NCI anticancer screen, dose series, 48 h
[1] = test system: 786-0 renal
[2] = test system: A498 renal
[3] = test system: A549 NSCLC
[4] = test system: ACHN renal
[5] = test system: BT-549 breast
[6] = test system: CAKI-1 renal
[7] = test system: CCRF-CEM leukemia
[8] = test system: COLO 205 colon
[9] = test system: DU-145 prostate
[10] = test system: EKVX NSCLC
[11] = test system: HCC-2998 colon
[12] = test system: HCT-116 colon
[13] = test system: HCT-15 colon
[14] = test system: HL-60(TB) leukemia
[15] = test system: HOP-62 NSCLC
[16] = test system: HOP-92 NSCLC
[17] = test system: HS 578T breast
[18] = test system: HT29 colon
[19] = test system: IGROV1 ovarian
[20] = test system: K-562 leukemia
[21] = test system: LOX IMVI melanoma
[22] = test system: M14 melanoma
[23] = test system: MALME-3M melanoma
[24] = test system: MCF7 breast
[25] = test system: MDA-MB-231 breast
[26] = test system: MDA-MB-435
[27] = test system: MDA-N
[28] = test system: MOLT-4 leukemia
[29] = test system: NCI-H226 lung
[30] = test system: NCI-H23 lung
[31] = test system: NCI-H460 lung
[32] = test system: NCI/ADR-RES ovarian
[33] = test system: OVCAR-3 ovarian
[34] = test system: OVCAR-4 ovarian
[35] = test system: OVCAR-8 ovarian
[36] = test system: PC-3 prostate
[37] = test system: RPMI-8226 leukemia
[38] = test system: RXF 393 renal
[39] = test system: SF-268 CNS
[40] = test system: SF-295 CNS
[41] = test system: SF-539 CNS
[42] = test system: SK-MEL-28 melanoma
[43] = test system: SK-MEL-5 melanoma
[44] = test system: SK-OV-3 ovarian
[45] = test system: SN12C renal
[46] = test system: SNB-19 CNS
[47] = test system: SR leukemia
[48] = test system: SW-620 colon
[49] = test system: T-47D breast
[50] = test system: TK-10 renal
[51] = test system: U251 CNS
[52] = test system: UACC-62 melanoma
[53] = test system: UO-31 renal
[54] = test system: KM12 colon
[55] = test system: NCI-H522 lung
[56] = test system: OVCAR-5 ovarian
[57] = test system: SK-MEL-2 melanoma
[58] = test system: SNB-75 CNS
[59] = test system: UACC-257 melanoma

In the case of COP(=O)(OC)C(NC=O)P(=O)(OC)OC, the TGI [1] is reported as > 100 µM, the TGI [2] is reported as > 100 µM and the TGI [3] is reported as > 100 µM. The TGI [4] was > 100 µM, the TGI [5] was > 100 µM and the TGI [6] was > 100 µM. The TGI [7] was > 100 µM, the TGI [8] was > 100 µM and the TGI [9] was > 100 µM. The TGI [10] was > 100 µM, the TGI [11] was > 100 µM and the TGI [12] was > 100 µM. The TGI [13] was > 100 µM, the TGI [14] was > 100 µM and the TGI [15] was > 100 µM. For the same compound, the TGI [16] was > 100 µM, the TGI [17] was > 100 µM and the TGI [18] was > 100 µM. For the same compound, the TGI [19] was > 100 µM, the TGI [20] was > 100 µM and the TGI [21] was > 100 µM. The TGI [22] was > 100 µM, the TGI [23] was > 100 µM and the TGI [24] was > 100 µM. For the same compound, the TGI [25] was > 100 µM, the TGI [26] was > 100 µM and the TGI [27] was > 100 µM. The TGI [28] was > 100 µM, the TGI [29] was > 100 µM and the TGI [30] was > 100 µM. For the same compound, the TGI [31] was > 100 µM, the TGI [32] was > 100 µM and the TGI [33] was > 100 µM. For the same compound, the TGI [34] was > 100 µM, the TGI [35] was > 100 µM and the TGI [36] was > 100 µM. For the same compound, the TGI [37] was > 100 µM, the TGI [38] was > 100 µM and the TGI [39] was > 100 µM. The TGI [40] was > 100 µM, the TGI [41] was > 100 µM and the TGI [42] was > 100 µM. For the same compound, the TGI [43] was > 100 µM, the TGI [44] was > 100 µM and the TGI [45] was > 100 µM. For the same compound, the TGI [46] was > 100 µM, the TGI [47] was > 100 µM and the TGI [48] was > 100 µM. The TGI [49] was > 100 µM, the TGI [50] was > 100 µM and the TGI [51] was > 100 µM. For the same compound, the TGI [52] was > 100 µM and the TGI [53] was > 100 µM.
In the case of ONC1=Nc2ccccc2OCc2cc(Br)c(Br)cc2COc2ccccc2N=C1NO, the TGI [1] is reported as > 44.3 µM, the TGI [2] is reported as 43.2 µM and the TGI [3] is reported as > 54 µM. For the same compound, the TGI [4] was > 43.3 µM, the TGI [5] was 42.5 µM and the TGI [6] was 29.3 µM. The TGI [7] was > 34.1 µM, the TGI [8] was 21.5 µM and the TGI [9] was 29.3 µM. For the same compound, the TGI [10] was 47.2 µM, the TGI [11] was 31.8 µM and the TGI [12] was 32.9 µM. For the same compound, the TGI [13] was > 44.4 µM, the TGI [14] was 25 µM and the TGI [15] was 38.9 µM. The TGI [16] was 32 µM, the TGI [17] was > 69.8 µM and the TGI [18] was > 43.5 µM. The TGI [19] was > 37.7 µM, the TGI [20] was > 44.6 µM and the TGI [54] was > 46 µM. The TGI [21] was 45.1 µM, the TGI [22] was > 54.2 µM and the TGI [23] was 42.1 µM. The TGI [24] was > 44.7 µM, the TGI [25] was 35.5 µM and the TGI [26] was > 54.3 µM. For the same compound, the TGI [27] was 34.1 µM, the TGI [28] was > 31.3 µM and the TGI [29] was > 52.7 µM. The TGI [30] was 44.5 µM, the TGI [31] was 30.2 µM and the TGI [55] was 41.9 µM. For the same compound, the TGI [32] was > 53.7 µM, the TGI [33] was > 48.1 µM and the TGI [34] was > 52.6 µM. For the same compound, the TGI [56] was 42.8 µM, the TGI [35] was > 47.5 µM and the TGI [36] was 31.3 µM. The TGI [37] was 43.4 µM, the TGI [38] was 47.9 µM and the TGI [39] was > 57.4 µM. The TGI [40] was > 53.6 µM, the TGI [57] was 38.7 µM and the TGI [42] was > 57.5 µM. For the same compound, the TGI [43] was 30.4 µM, the TGI [44] was > 53.1 µM and the TGI [45] was 27.3 µM. The TGI [46] was 24.2 µM, the TGI [58] was > 54.7 µM and the TGI [47] was 15.2 µM. The TGI [48] was > 48.3 µM, the TGI [49] was 31.1 µM and the TGI [50] was > 59.6 µM. It also gave a TGI [51] of 41.8 µM, a TGI [59] of 56.6 µM and a TGI [52] of 35.7 µM. For the same compound, the TGI [53] was > 54.4 µM.
For CCCCCn1c(=O)c2c(=O)[nH][nH]c2c2ccccc21, the TGI [1] was > 100 µM, the TGI [2] was > 100 µM and the TGI [3] was > 100 µM. For the same compound, the TGI [4] was > 100 µM, the TGI [5] was > 100 µM and the TGI [6] was > 100 µM. The TGI [7] was > 100 µM, the TGI [8] was > 100 µM and the TGI [9] was > 100 µM. For the same compound, the TGI [11] was > 100 µM, the TGI [12] was > 100 µM and the TGI [13] was > 100 µM. The TGI [14] was > 100 µM, the TGI [15] was > 100 µM and the TGI [16] was > 100 µM. For the same compound, the TGI [17] was > 100 µM, the TGI [18] was > 100 µM and the TGI [19] was > 100 µM. The TGI [20] was > 100 µM, the TGI [54] was > 100 µM and the TGI [21] was > 100 µM. The TGI [23] was > 100 µM, the TGI [24] was > 100 µM and the TGI [25] was > 100 µM. For the same compound, the TGI [26] was > 100 µM, the TGI [27] was > 100 µM and the TGI [28] was > 100 µM. The TGI [29] was > 100 µM, the TGI [30] was > 100 µM and the TGI [31] was > 100 µM. For the same compound, the TGI [55] was > 100 µM, the TGI [32] was > 100 µM and the TGI [33] was > 100 µM. The TGI [34] was > 100 µM, the TGI [56] was > 100 µM and the TGI [35] was > 100 µM. For the same compound, the TGI [36] was > 100 µM, the TGI [37] was > 100 µM and the TGI [38] was > 100 µM. For the same compound, the TGI [39] was > 100 µM, the TGI [40] was > 100 µM and the TGI [41] was > 100 µM. The TGI [57] was > 100 µM, the TGI [42] was > 100 µM and the TGI [43] was > 100 µM. For the same compound, the TGI [44] was > 100 µM, the TGI [45] was > 100 µM and the TGI [58] was > 100 µM. For the same compound, the TGI [47] was > 100 µM, the TGI [48] was > 100 µM and the TGI [49] was > 100 µM. For the same compound, the TGI [50] was > 100 µM, the TGI [51] was > 100 µM and the TGI [59] was > 100 µM. The TGI [52] was > 100 µM and the TGI [53] was > 100 µM.
COc1ccc2c(-c3ccc(OCCN(C)C)cc3)c(Oc3ccc(Cl)cc3)c(=O)oc2c1 showed a TGI [1] of 6.32 µM, a TGI [2] of 29.4 µM and a TGI [3] of 18.7 µM. For the same compound, the TGI [4] was 20.9 µM, the TGI [5] was 37.6 µM and the TGI [6] was 31 µM. It also gave a TGI [7] of 23.1 µM, a TGI [8] of 10.5 µM and a TGI [9] of 32.7 µM. It also gave a TGI [10] of 26.2 µM, a TGI [11] of 9.63 µM and a TGI [12] of 8.49 µM. The TGI [13] was 15.5 µM, the TGI [15] was > 100 µM and the TGI [16] was 32.5 µM. The TGI [17] was > 54.6 µM, the TGI [18] was > 46.7 µM and the TGI [19] was 14.1 µM. It also gave a TGI [20] of 4.95 µM, a TGI [54] of 25.1 µM and a TGI [21] of 4.3 µM. The TGI [22] was 3.23 µM, the TGI [23] was 3.48 µM and the TGI [24] was 6.12 µM. The TGI [25] was 33.5 µM, the TGI [26] was 8.66 µM and the TGI [27] was 4.39 µM. For the same compound, the TGI [28] was 6.09 µM, the TGI [29] was > 55.7 µM and the TGI [30] was > 54.2 µM. The TGI [31] was > 42.4 µM, the TGI [55] was 12.1 µM and the TGI [32] was > 62.5 µM. The TGI [33] was 21 µM, the TGI [34] was > 95.7 µM and the TGI [56] was 36.8 µM. For the same compound, the TGI [35] was > 46.9 µM, the TGI [36] was 19.7 µM and the TGI [37] was 14.8 µM. For the same compound, the TGI [38] was 12.4 µM, the TGI [39] was 32.9 µM and the TGI [40] was 5.42 µM. For the same compound, the TGI [41] was > 30.8 µM, the TGI [57] was 19.1 µM and the TGI [42] was 3.57 µM. For the same compound, the TGI [43] was 3.19 µM, the TGI [44] was 29.3 µM and the TGI [45] was > 53.3 µM. For the same compound, the TGI [46] was 33.6 µM, the TGI [58] was 27.6 µM and the TGI [47] was 5.06 µM. For the same compound, the TGI [48] was > 46.8 µM, the TGI [49] was > 100 µM and the TGI [50] was 26.4 µM. It also gave a TGI [51] of 14.5 µM, a TGI [59] of 3.75 µM and a TGI [52] of 7.52 µM. It also gave a TGI [53] of 11.9 µM.

— PubChem BioAssay (NCI)
